According to patent US20120322843A1, “GENOTYPE SPECIFIC METHODS FOR TREATING HUMAN SUBJECTS USING 4-METHYLPYRAZOLE” (RAPTOR THERAPEUTICS INC., priority 2009, published 2012):
Several values for one entry are separate records, joined by “and”; a condition that tells them apart may be missing. Identical values can stand only once.

System: human subjects with reduced or absent ALDH2 activity
Assay: Blinded, intra-subject controlled, single dose study of oral 4-MP given before ethanol; serum acetaldehyde measured by HPLC/MS/MS and compared by ALDH2/ADH2 genotype
Format: in vivo
Description: A blinded, intra-subject controlled, single dose, dose escalation study of 4-MP for mitigation of acetaldehyde related toxicity in subjects with symptoms of inborn altered ethanol metabolism with concomitant ethanol exposure was undertaken.
Twenty-four subjects (n=24) were randomly selected and orally administered 1 mg/kg, 3 mg/kg, or 5 mg/kg of 4-MP, followed 30 minutes later by an oral dose of 20% ethanol ([…]).
Using the same protocol, wherein 4-MP was replaced with placebo, each of the twenty-four randomly selected subjects served as its own control.
The twenty-four randomly selected subjects were then subjected to blood sampling, and the sampled blood analyzed for acetaldehyde levels at select time points following ethanol consumption.
For acetaldehyde analysis, blood samples were prepared by dilution with an internal standard (acetaldehyde-d4), with derivatization of acetaldehyde with dinitrophenyl hydrazine in hydrochloric acid, liquid-liquid portioning and solvent exchange. The derivatization forms an acetaldehyde-dinitrophenyl hydrazine (DNPH) derivative which dramatically increases the boiling point of the molecule and thus its relative stability compared to the acetaldehyde itself (Nagy et al., Rapid Communications in Mass Spectrometry 2004, 18, 2473-2478). The derivatized analytes were separated using a Jones Chromatography (Grace-Vydac). 50 mm×2.1 mm, 3 μm column held in an oven set at 28° C. Two mobile phases were used in a gradient consisting of 30:70 acetonitrile:water versus 90:10 acetonitrile:water with 0.1% formic acid. The derivatized analyte was detected on a High Performance Liquid Chromatograph equipped with a Mass Spectrometer (HPLC/MS/MS). Quantitation was performed using a linear regression curve fit of impurities standards with 1/× weighting, prepared from dilutions of acetaldehyde in water. Samples and standards were injected at 2 μL.
All […] subjects were then genotyped for ALDH2 and ADH2 at the Alcohol Research Center at Indiana University using (i) genomic DNA isolation and (ii) TaqMan assay for allelic discrimination. • i. Genomic DNA isolation: DNA was first isolated using the “Hot:SHOT” method for isolating PCR quality genomic DNA (Truett et al., Biotechniques 2000, 29(1), 52, 54). Briefly, blood blotted on filter paper (3 mm circle) was placed in the well of a 96-well plate and mixed with 75 μL 25 mM NaOH/0.3 mM EDTA solution and heated to 95° C. for 40 minutes, followed by neutralization with 75 μL 40 mM Tris-HCl ([…]) solution. 1-5 microliters were used for each PCR. • ii. TaqMan Assay for Allelic Discrimination: The allelic discrimination assay used a multiplexed (more than one primer/probe pair per reaction), end-point (data is collected at the end of the PCR process) assay. Each assay mix contained two different TaqMan probes (Applied BioSystems, Foster City, Calif.), labeled with VIC or FAM fluorescent reporter dye, which bound preferentially to one of the alleles. The genotype of each sample was determined by the fluorescence levels of the reporter dyes and was clustered on a graph with other samples of the same genotype. Each reaction contained 5 μL of 2×TaqMan Universal PCR Mastermix, No AmpErase UNG, 3.75 μL of water, 0.25 μL, of 40× Assay Mix, and 1 μL of DNA sample. Eight or eleven controls were included on each 96-well plate: two no template controls, two or three heterozygous samples, and two or three of each of the homozygous samples. Thermocycling was carried out in ND Research PTC-200 thermocyclers. The PCR products were then analyzed in an ABI PRISM® 7300 Sequence Detection System (SOS) instrument. SDS Software 1.3.1 converted the raw data to pure dye components and ploted the results of the allelic discrimination on a scatter plot of Allele X versus Allele Y (e.g. ADH2*1 versus ADH2*2); each genotype appeared on the graph as a cluster of points. […]

[1] = Groups A and D (reduced ALDH2 activity, ADH2*1/ADH2*1 or ADH2*1/ADH2*2), n=6, 1 mg/kg 4-MP oral, then ethanol
[2] = Groups A, B, D, F and G (reduced or absent ALDH2 activity), n=23, 1, 3 or 5 mg/kg 4-MP
[3] = Groups F and G (reduced or absent ALDH2 activity, ADH2*2/ADH2*2), n=6, 1 mg/kg 4-MP oral, then ethanol

Cc1cn[nH]c1 [4-MP, 4-methylpyrazole]
Acetaldehyde AUC0-8H mean [1]: 162 ± 18.7 µg·h/mL and 162 µg·h/mL
Cmax mean (serum acetaldehyde) [1]: 41.3 µg/mL
Peak mean acetaldehyde concentration in the blood (FIG. 2) (Groups A and D, 1 mg/kg 4-MP): can be reduced
Reduction in Cmax mean relative to placebo (Groups A and D, 1 mg/kg 4-MP): approximately 36%
Acetaldehyde AUC0-8H mean [2]: 182 µg·h/mL
Cmax mean (serum acetaldehyde) [2]: 64.2 µg/mL
Peak mean acetaldehyde concentration in the blood (FIG. 3) (Groups F and G (ADH2*2/ADH2*2), 1 mg/kg 4-MP): not reduced
Acetaldehyde AUC0-8H mean [3]: 221 µg·h/mL
Cmax mean (serum acetaldehyde) [3]: 89.2 µg/mL
Peak mean acetaldehyde concentration in the blood (FIG. 4) (all subjects with reduced or absent ALDH2 activity, 1, 3 or 5 mg/kg 4-MP): not reduced
